Results reported in the supplement of paper PMC11061612.

Assays:
[1] = compound: C1CC(C1)(C(=O)[O-])C(=O)[O-].N.N.[Pt+2] [Carboplatin]; conditions: max 10 µM
Method in brief: (§1)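 After 24 hours at 37°C and 5% CO2 in 1536-well plates holding 7.5 μl of DMEM/F12 or RPMI with 10% FBS, cancer cell lines were dosed for 72 hours, with final DMSO typically 0.2%. Viability came from CellTiter-Glo 2.0 luminescence, scaled between the means of blank wells and DMSO wells. A non-linear mixed effects model fitted a two-parameter logistic curve to each dose response to give the single-agent IC50.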

[2] = compound: C1CN(CCC1(C(=O)N[C@@H](CCO)C2=CC=C(C=C2)Cl)N)C3=NC=NC4=C3C=CN4 [AZD5363]; conditions: max 10 µM
Method in brief: as §1

[3] = compound: C=CCn1c(=O)c2cnc(Nc3ccc(N4CCN(C)CC4)cc3)nc2n1-c1cccc(C(C)(C)O)n1 [AZD1775]; conditions: max 3 µM
Method in brief: as §1

[4] = compound: CC(=O)Nc1cccc(-n2c(=O)n(C3CC3)c(=O)c3c(Nc4ccc(I)cc4F)n(C)c(=O)c(C)c32)c1 [Trametinib]; conditions: max 1 µM
Method in brief: as §1

[5] = compound: CC(=O)O[C@H]1C(=O)[C@@]2(C)[C@H]([C@H](OC(=O)c3ccccc3)[C@]3(O)C[C@H](OC(=O)[C@H](O)[C@@H](NC(=O)c4ccccc4)c4ccccc4)C(C)=C1C3(C)C)[C@]1(OC(C)=O)CO[C@@H]1C[C@@H]2O [Paclitaxel]; conditions: max 3 µM
Method in brief: as §1

[6] = compound: CC(=O)c1c(C)c2cnc(Nc3ccc(N4CCNCC4)cn3)nc2n(C2CCCC2)c1=O [Palbociclib]; conditions: max 10 µM
Method in brief: as §1

[7] = compound: CC(C)n1c(=O)n(C)c2cnc3cc(F)c(-c4ccc(OCCCN5CCCCC5)nc4)cc3c21 [AZD1390]; conditions: max 0.3 µM
Method in brief: as §1

[8] = compound: CC1(C)CCC(CN2CCN(c3ccc(C(=O)NS(=O)(=O)c4ccc(NCC5CCOCC5)c([N+](=O)[O-])c4)c(Oc4cnc5[nH]ccc5c4)c3)CC2)=C(c2ccc(Cl)cc2)C1 [Venetoclax]; conditions: max 1 µM
Method in brief: as §1

[9] = compound: CC1=C(C(=CC=C1)Cl)NC(=O)C2=CN=C(S2)NC3=CC(=NC(=N3)C)N4CCN(CC4)CCO [Dasatinib]; conditions: max 2 µM
Method in brief: as §1

[10] = compound: CC1=CN2[C@@H](C1)C=NC3=CC(=C(C=C3C2=O)OC)OCCCCCOC4=C(C=C5C(=C4)N=C[C@@H]6CC(=CN6C5=O)C)OC [SG3199]; conditions: max 0.001 µM
Method in brief: as §1

[11] = compound: CCN(CCO)CCCOc1ccc2c(Nc3cc(CC(=O)Nc4cccc(F)c4)[nH]n3)ncnc2c1 [AZD2811]; conditions: max 1 µM
Method in brief: as §1

[12] = compound: CCc1c2c(nc3ccc(O)cc13)-c1cc3c(c(=O)n1C2)COC(=O)[C@]3(O)CC [SN-38]; conditions: max 0.3 µM
Method in brief: as §1

[13] = compound: CN(C)CCCOc1ccc(-c2ccc3ncc4c(c3c2)n(C2CCOCC2)c(=O)n4C)cn1 [AZD0156]; conditions: max 3 µM
Method in brief: as §1

[14] = compound: CN(CC[C@H](CSC1=CC=CC=C1)NC2=C(C=C(C=C2)S(=O)(=O)NC(=O)C3=CC=C(C=C3)N4CCC(CC4)[C@H](C5=CC=CC=C5C6=CC=C(C=C6)Cl)O)S(=O)(=O)C(F)(F)F)CCO [AZD4320]; conditions: max 1 µM
Method in brief: as §1

[15] = compound: COc1cc(Nc2ncc3c(n2)-c2ccc(Cl)cc2C(c2c(F)cccc2OC)=NC3)ccc1C(=O)O [Alisertib]; conditions: max 10 µM
Method in brief: as §1

[16] = compound: COc1cc([C@@H]2c3cc4c(cc3[C@@H](O[C@@H]3O[C@@H]5CO[C@@H](C)O[C@H]5[C@H](O)[C@H]3O)[C@H]3COC(=O)[C@H]23)OCO4)cc(OC)c1O [Etoposide]; conditions: max 10 µM
Method in brief: as §1

[17] = compound: COc1cc2ncnc(Nc3ccc(F)c(Cl)c3)c2cc1OCCCN1CCOCC1 [Gefitinib]; conditions: max 10 µM
Method in brief: as §1

[18] = compound: COc1cccc(OCCCN)c1-c1cc(Nc2cnc(C#N)cn2)n[nH]1 [Prexasertib]; conditions: max 1 µM
Method in brief: as §1

[19] = compound: COc1cccc2c1C(=O)c1c(O)c3c(c(O)c1C2=O)C[C@@](O)(C(=O)CO)C[C@@H]3O[C@H]1C[C@H](N)[C@H](O)[C@H](C)O1 [Doxorubicin]; conditions: max 1 µM
Method in brief: as §1

[20] = compound: COc1nnc2ccc(N3CCC(c4ccc(OCCN5CCN(C)C(=O)[C@H]5C)cc4)CC3)nn12 [AZD5153]; conditions: max 1 µM
Method in brief: as §1

[21] = compound: CS(=O)(=O)CCNCc1ccc(-c2ccc3ncnc(Nc4ccc(OCc5cccc(F)c5)c(Cl)c4)c3c2)o1 [Lapatinib]; conditions: max 10 µM
Method in brief: as §1

[22] = compound: C[C@@H](Nc1cc(F)cc(F)c1)c1cc(C(=O)N(C)C)cc2c(=O)cc(N3CCOCC3)oc12 [AZD8186]; conditions: max 10 µM
Method in brief: as §1

[23] = compound: C[C@@H](Oc1cc(-c2cnn(C3CCNCC3)c2)cnc1N)c1c(Cl)ccc(F)c1Cl [Crizotinib]; conditions: max 10 µM
Method in brief: as §1

[24] = compound: C[C@@H](c1ccc2nccn2c1)n1nnc2ncc(-c3cnn(C)c3)nc21 [Savolitinib]; conditions: max 1 µM
Method in brief: as §1

[25] = compound: C[C@@H]1COCCN1C2=NC(=NC(=C2)C3(CC3)[S@](=N)(=O)C)C4=C5C=CNC5=NC=C4 [AZD6738]; conditions: max 10 µM
Method in brief: as §1

[26] = compound: Cc1c2c(nn1C)CSCc1cc(n(C)n1)CSc1cc(c3ccccc3c1)OCCCc1c(C(=O)O)n(C)c3c-2c(Cl)ccc13 [AZD5991]; conditions: max 1 µM
Method in brief: as §1

[27] = compound: Cc1cc2ncnn2cc1Nc1ncc2c(n1)n(C1CCOCC1)c(=O)n2C [AZD7648]; conditions: max 10 µM
Method in brief: as §1

[28] = compound: Cc1nc(-c2cn3c(n2)-c2ccc(-c4cnn(C(C)(C)C(N)=O)c4)cc2OCC3)n(C(C)C)n1 [Taselisib]; conditions: max 10 µM
Method in brief: as §1

[29] = compound: Cn1cnc2c(F)c(Nc3ccc(Br)cc3Cl)c(C(=O)NOCCO)cc21 [Selumetinib]; conditions: max 10 µM
Method in brief: as §1

[30] = compound: N#Cc1cnc(Nc2cc(NC[C@H]3CNCCO3)c(C(F)(F)F)cn2)cn1 [SRA737]; conditions: max 10 µM
Method in brief: as §1

[31] = compound: NC1(c2ccc(-c3nc4ccn5c(=O)[nH]nc5c4cc3-c3ccccc3)cc2)CCC1 [MK-2206]; conditions: max 10 µM
Method in brief: as §1

[32] = compound: Nc1ccn([C@@H]2O[C@H](CO)[C@@H](O)C2(F)F)c(=O)n1 [Gemcitabine]; conditions: max 0.3 µM
Method in brief: as §1

[33] = compound: O=C(Nc1ccc2[nH]nc(-c3ccncc3)c2c1)[C@@H]1CCN(CC(=O)N2CCN(c3ccc(-c4ncccn4)cc3)CC2)C1; conditions: max 5 µM
Method in brief: as §1

[34] = compound: O=C(c1cc(Cc2n[nH]c(=O)c3ccccc23)ccc1F)N1CCN(C(=O)C2CC2)CC1 [Olaparib]; conditions: max 10 µM
Method in brief: as §1

[35] = compound: O=c1[nH]cc(F)c(=O)[nH]1 [5-Fluorouracil]; conditions: max 20 µM
Method in brief: as §1

| Cell Line | IC50, cell viability 72 h [1] | IC50, cell viability 72 h [2] | IC50, cell viability 72 h [3] | IC50, cell viability 72 h [4] | IC50, cell viability 72 h [5] | IC50, cell viability 72 h [6] | IC50, cell viability 72 h [7] | IC50, cell viability 72 h [8] | IC50, cell viability 72 h [9] | IC50, cell viability 72 h [10] | IC50, cell viability 72 h [11] | IC50, cell viability 72 h [12] | IC50, cell viability 72 h [13] | IC50, cell viability 72 h [14] | IC50, cell viability 72 h [15] | IC50, cell viability 72 h [16] | IC50, cell viability 72 h [17] | IC50, cell viability 72 h [18] | IC50, cell viability 72 h [19] | IC50, cell viability 72 h [20] | IC50, cell viability 72 h [21] | IC50, cell viability 72 h [22] | IC50, cell viability 72 h [23] | IC50, cell viability 72 h [24] | IC50, cell viability 72 h [25] | IC50, cell viability 72 h [26] | IC50, cell viability 72 h [27] | IC50, cell viability 72 h [28] | IC50, cell viability 72 h [29] | IC50, cell viability 72 h [30] | IC50, cell viability 72 h [31] | IC50, cell viability 72 h [32] | IC50, cell viability 72 h [33] | IC50, cell viability 72 h [34] | IC50, cell viability 72 h [35] |
| --- | --- | --- | --- | --- | --- | --- | --- | --- | --- | --- | --- | --- | --- | --- | --- | --- | --- | --- | --- | --- | --- | --- | --- | --- | --- | --- | --- | --- | --- | --- | --- | --- | --- | --- | --- |
| RO82-W-1 (Thyroid Gland Carcinoma) | > 10 µM | > 10 µM | > 3 µM | > 1 µM | > 3 µM | > 10 µM | > 0.3 µM | > 1 µM | > 2 µM | > 0.001 µM | > 1 µM | > 0.3 µM | > 3 µM | > 1 µM | > 10 µM | > 10 µM | > 10 µM | > 1 µM | > 1 µM | > 1 µM | > 10 µM | > 10 µM | > 10 µM | > 1 µM | > 10 µM | > 1 µM | > 10 µM | > 10 µM | > 10 µM | > 10 µM | > 10 µM | > 0.3 µM | > 5 µM | > 10 µM | > 20 µM |
| Ramos-2G6-4C10 (Burkitt's Lymphoma) | > 10 µM | > 10 µM | 0.307 µM | > 1 µM | 0.0159 µM | > 10 µM | > 0.3 µM | > 1 µM | > 2 µM | > 0.001 µM | > 1 µM | 0.0783 µM | > 3 µM | > 1 µM | > 10 µM | 9.17 µM | > 10 µM | 0.0105 µM | 0.684 µM | 0.389 µM | > 10 µM | > 10 µM | > 10 µM | > 1 µM | 3.09 µM | 0.168 µM | > 10 µM | > 10 µM | > 10 µM | 3.72 µM | 5.61 µM | > 0.3 µM | > 5 µM | > 10 µM | > 20 µM |
| T98G (Glioblastoma) | > 10 µM | > 10 µM | 1.05 µM | > 1 µM | 0.0146 µM | > 10 µM | > 0.3 µM | > 1 µM | 0.287 µM | > 0.001 µM | > 1 µM | > 0.3 µM | > 3 µM | > 1 µM | > 10 µM | > 10 µM | > 10 µM | 0.031 µM | > 1 µM | > 1 µM | > 10 µM | 5.45 µM | > 10 µM | > 1 µM | 2.59 µM | > 1 µM | > 10 µM | 5.87 µM | > 10 µM | 2.04 µM | > 10 µM | 0.119 µM | > 5 µM | > 10 µM | > 20 µM |
| TE-9 (Esophageal Squamous Cell Carcinoma) | > 10 µM | > 10 µM | 1.15 µM | > 1 µM | 0.068 µM | > 10 µM | > 0.3 µM | > 1 µM | > 2 µM | > 0.001 µM | > 1 µM | > 0.3 µM | > 3 µM | > 1 µM | > 10 µM | > 10 µM | > 10 µM | 0.548 µM | > 1 µM | > 1 µM | > 10 µM | > 10 µM | > 10 µM | > 1 µM | > 10 µM | > 1 µM | > 10 µM | > 10 µM | > 10 µM | > 10 µM | > 10 µM | > 0.3 µM | > 5 µM | > 10 µM | > 20 µM |
| UM-UC-3 (Bladder Carcinoma) | > 10 µM | > 10 µM | > 3 µM | > 1 µM | 0.066 µM | > 10 µM | > 0.3 µM | > 1 µM | > 2 µM | > 0.001 µM | > 1 µM | 0.0153 µM | > 3 µM | > 1 µM | > 10 µM | 3.45 µM | > 10 µM | 0.799 µM | > 1 µM | > 1 µM | > 10 µM | > 10 µM | > 10 µM | > 1 µM | > 10 µM | > 1 µM | > 10 µM | 8.32 µM | > 10 µM | > 10 µM | > 10 µM | 0.0582 µM | > 5 µM | > 10 µM | > 20 µM |
